For data set [1], the system named is TNFα induced NFκB transcription activity. As to the kind of experiment: cell-based TNFα induced IKKβ mediated NFκB activation luciferase reporter assay. Details: TNFα induced NFκB transcription activity % Inhibition: concentration or dose not given beside the values. The source says: Compound 13-197 has a structure:
For the next data set, the system named is HCT116. In words: growth inhibition assay, colon cancer cell line HCT116. The conditions noted are these: Homo sapiens, HCT-116. In kind it is cell-based.
The subject of the next data set is SW620. As to the kind of experiment: growth inhibition assay, colon cancer cell line SW620. It is filed as cell-based. The conditions noted are these: Homo sapiens, SW-620.
Another data set relates to HT29. As to the kind of experiment: growth inhibition assay, colon cancer cell line HT29. In kind it is cell-based. The conditions noted are these: Homo sapiens, HT-29.
The next data set concerns DLD1. As to the kind of experiment: growth inhibition assay, colon cancer cell line DLD1. It is filed as cell-based. The conditions noted are these: Homo sapiens, DLD-1.
Another data set concerns MiaPaCa2. In words: growth inhibition assay, pancreatic cancer cell line MiaPaCa2. The conditions noted are these: Homo sapiens, MIA PaCa-2. In kind it is cell-based.
The next data set deals with AsPC1. As to the kind of experiment: growth inhibition assay, pancreatic cancer cell line AsPC1. The conditions noted are these: Homo sapiens. In kind it is cell-based.
A further data set concerns Suit2. In words: growth inhibition assay, pancreatic cancer cell line Suit2. It is filed as cell-based. The conditions noted are these: SUIT-2.
For the next data set, the system named is S2013. In words: growth inhibition assay, pancreatic cancer cell line S2013. In kind it is cell-based.
The nature of data set [2]: in-vitro metabolic stability in human liver S9 fraction. The conditions noted are these: for microsomal CLint / half-life: human liver S-9 fraction; for microsomal CLint: read-out: intrinsic clearance. In kind it is in vitro ADME. The protocol: (§1) A metabolic stability profile, as well as oral and intravenous dose pharmacokinetics in mice was characterized. The in-vitro metabolic stability of 39-100 was determined using human liver S9 fraction (XenoTech, LLC, USA). 7-hydroxycoumarin (glucuronidation and sulphation) and testosterone (CYP hydroxylation) were used as positive controls for in-vitro metabolic stability study. The oral and intravenous dose pharmacokinetic studies were performed in Balb/c mice. The oral dose of 39-100 was 10 mg/kg, and the intravenous dose was 1 mg/kg. Sample analysis was performed by liquid chromatography-tandem mass spectrometry (SCIEX QTRAP 4000 LC-MS/MS System). For metabolite identification, samples were acquired by MRM-information dependent acquisition-enhanced product ion (MRM-IDA-EPI) scans, enhanced mass spectrometry-IDA-EPI scans, neutral loss, and precursor ion scan methods. Metabolites of 39-100 were characterized by Analyst 1.6.2, LightSight 2.3.1, and ChemDraw Professional-15 software.

Data set [3] in a line: oral and intravenous dose pharmacokinetics in mice. It is filed as in vivo, Balb/c mice. The conditions noted are these: for MRT inf: read-out: MRT 0-∞. The protocol:
as §1

In the next data set the test system is HCT116 cancer cells. In words: HCT116 colon tumor xenograft growth inhibition study. In kind it is in vivo. The conditions noted are these: HCT116 xenograft in athymic mice, 40 mg/kg for 2 weeks, preliminary results. The protocol: Colon tumor xenografts were established in immune deficient (athymic: 4-6 weeks old) mice. Briefly, exponentially growing (70-80% confluent) HCT116 cancer cells were trypsinized, counted using a hemocytometer and stained with trypan blue to ensure only healthy cells are counted. Cells in suspension were added to matrigel and 4×10^6 cells/100 μl of volume were injected into the flanks of mice. Post-injection, mice were monitored on a daily basis to determine tumor growth. The tumor onset and progression was examined through palpation. Tumor diameter was measured using digital calipers and the tumor volume (in mm^3) was calculated using the formula=(width)^2×length/2. Mice were randomly separated into two groups and were dosed with either vehicle or 40 mg/kg of 39-100 for 2 weeks.

[4] abbreviates: Balb/c, mouse, plasma, Oral: 10 mg/kg.

Each structure is given as a SMILES string. Where two headings read alike, the source gives them in different places.

For `O=C(Nc1ccc(Br)cc1)Nc1ccc2nc(-c3ccco3)c(-c3ccco3)nc2c1` [13-197, reference compound], the “TNFα induced NFκB transcription activity % Inhibition” value in data set [1] stood at 32.9 ± 3.4%. Further, the GI50 stood at 8.8 ± 2.2 µM in the data set on HCT116; 9.2 ± 2.5 µM in the data set with SW620; 6.7 ± 1 µM with HT29; 10.9 ± 2.1 µM in the data set on DLD1; 10 ± 2.2 µM in the data set on MiaPaCa2; 12 ± 4 µM in the data set with AsPC1. Further, the GI50 came out at 10.7 ± 0.5 µM with Suit2 and 9.1 ± 1.1 µM in the data set on S2013. In data set [2] (human liver S9 fraction), the microsomal CLint amounted to 12.2 µL/min/mg. The compound further came in with a half-life in data set [2] of 0.95 h.
`O=C(Nc1ccc(Br)cc1)Nc1ccc2ncc(-c3cn[nH]c3)nc2c1` [39-09D]: the “TNFα induced NFκB transcription activity % Inhibition” value in data set [1] was determined as 48.4 ± 2.8%.
In the case of `Cn1cc(-c2cnc3ccc(NC(=O)Nc4ccc(Br)cc4)cc3n2)cn1` [39-055], the “TNFα induced NFκB transcription activity % Inhibition” value in data set [1] is 71.0 ± 4.8%.
In the case of `Cn1cc(-c2cnc3cc(NC(=O)Nc4ccc(Br)cc4)ccc3n2)cn1` [39-061], in data set [1], the “TNFα induced NFκB transcription activity % Inhibition” value was determined as 40.7 ± 2.9%.
The same measure, in the same setting: the result for `Cn1ccc(-c2cnc3ccc(NC(=O)Nc4ccc(Br)cc4)cc3n2)n1` [39-062] reads 33.0 ± 5.7%; that for `Cn1cc(-c2cnc3ccc(NC(=O)Nc4ccc(F)cc4)cc3n2)cn1` [39-066], 42.9 ± 9.8%; that for `Cn1cc(-c2cnc3ccc(NC(=O)Nc4ccccc4)cc3n2)cn1` [39-071], 31.2 ± 7.6%.
Still for that read-out and setting: the result for `Cn1ccc(-c2cnc3cc(NC(=O)Nc4ccc(Br)cc4)ccc3n2)n1` [39-072] reads 46.8 ± 4.4%; that for `Cn1cc(-c2cnc3ccc(NC(=O)Cc4ccc(Br)cc4)cc3n2)cn1` [39-076], 36.1 ± 8.8%; that for `Cc1nn(C)cc1-c1cnc2ccc(NC(=O)Nc3ccc(Br)cc3)cc2n1` [39-077], 37.7 ± 5.1%.
On to `Cn1cc(-c2cnc3ccc(NC(=O)Nc4ccc([N+](=O)[O-])cc4)cc3n2)cn1` [39-084], for which the “TNFα induced NFκB transcription activity % Inhibition” value in data set [1] is 36.4 ± 6.3%.
Still for that read-out and setting: the result for `Cc1ccc(NC(=O)Nc2ccc3ncc(-c4cnn(C)c4)nc3c2)cc1` [39-085] reads 53.0 ± 2.9%.
Regarding `Cn1cc(-c2cnc3ccc(NC(=O)Nc4cccc(Br)c4)cc3n2)cn1` [39-086], the “TNFα induced NFκB transcription activity % Inhibition” value in data set [1] is listed as 88.9 ± 1.8%.
`Cn1cc(-c2cnc3ccc(NC(=O)Nc4ccc(F)c(Br)c4)cc3n2)cn1` [39-100]: in [1], the “TNFα induced NFκB transcription activity % Inhibition” value turned out to be 83.8 ± 1.6%. Also, in [1] (all the assays tested (FIG. 1 and FIG. 2)), the “potency relative to 13-197” value was “more potent than 13-197”. Further, the GI50 in the data set with HCT116 amounted to 3.8 ± 1.2 µM; with SW620, 8.4 ± 2.3 µM; in the data set on HT29 it was 3.1 ± 0.2 µM; in the data set with DLD1, 8.4 ± 2.3 µM; in the data set with MiaPaCa2, 3.2 ± 0.3 µM; in the data set on AsPC1 it was 7.2 ± 2.6 µM. Moreover, the GI50 in the data set on Suit2 was 4.5 ± 0.4 µM; in the data set on S2013 it was 4.1 ± 0.5 µM. Moreover, the parent compound present entry in data set [2] (human liver S9 fraction, 60-minute incubation) was “More than 85%”. Also, in data set [2] (human liver S9 fraction), the microsomal CLint turned out to be 1.59 µL/min/mg. In addition, the half-life in [2] is 7.273 h; in data set [3] (Balb/c, mouse, plasma, IV: 1 mg/kg, read-out: t0.5 (elimination half-life) (converted)) it was 3.9 h. Further, the metabolites detected entry in data set [2] (metabolite identification by LC-MS/MS, matrix not stated) is “In very small fraction glucuronidation, sulfonation, and demethylation”. The MRT inf stood at 1.4 h in [3] (Balb/c, mouse, plasma, IV: 1 mg/kg) and 3.9 h in data set [3] (setting [4]). The compound further came in with an AUC(0-t) in data set [3] (setting [4]) of 12400 ng·h/mL. For the same compound, in data set [3] (setting [4]), the CL/F is 13.3 mL/min/kg. Further, the highest level in data set [3] (setting [4]) (Cmax) was 2330 ng/mL. For the same compound, in [3] (setting [4]), the Tmax came out at 2 h. The bioavailability in data set [3] (Balb/c, mouse, plasma, Oral: 10 mg/kg vs IV: 1 mg/kg) stood at 208%. Also, the AUC(0-inf) worked out at 598 ng·h/mL in [3] (Balb/c, mouse, plasma, intravenous dose 1 mg/kg, read-out: area under the curve (AUC0-∞)) and 12400 ng·h/mL in [3] (Balb/c, mouse, plasma, oral administration 10 mg/kg, read-out: AUC0-∞). In addition, the MRT was 1.4 h in data set [3] (Balb/c, mouse, plasma, intravenous dose 1 mg/kg, read-out: mean residence time (MRT)) and 3.9 h in data set [3] (Balb/c, mouse, plasma, oral administration 10 mg/kg, read-out: MRT). This compound showed a C0-iv in [3] (IV: 1 mg/kg) of 709.9 ng/mL. Further, in [3] (IV: 1 mg/kg), the “CL/F (clearance)” value worked out at 27.8 mL/min/kg. Further, the λZ in data set [3] (IV: 1 mg/kg) is 0.177 h⁻¹; in data set [3] (Oral: 10 mg/kg), 0.295 h⁻¹. Besides, the t0.5 in data set [3] (Oral: 10 mg/kg) was determined as 2.35 h. For the same compound, the colon tumor growth entry with HCT116 cancer cells was “reduced colon tumorgrowth”.
On to `Cn1cc(-c2cnc3ccc(NC(=O)Nc4ccccc4Br)cc3n2)cn1` [39-102], for which the “TNFα induced NFκB transcription activity % Inhibition” value in data set [1] worked out at 62.4 ± 1.2%.
For the compound `Cn1cc(-c2cnc3ccc(NC(=O)Nc4ccc(F)c(C(F)(F)F)c4)cc3n2)cn1` [42-062], in data set [1], the “TNFα induced NFκB transcription activity % Inhibition” value worked out at 83.7 ± 0.3%.
The same measure, in the same setting: the result for `Cn1cc(-c2cnc3ccc(NC(=O)Nc4cccc(Cl)c4)cc3n2)cn1` [42-064] reads 96.3 ± 1.5%; that for `Cn1cc(-c2cnc3ccc(NC(=O)Nc4ccc(F)c(Cl)c4)cc3n2)cn1` [42-065], 85.3 ± 2.8%; that for `Cc1cccc(NC(=O)Nc2ccc3ncc(-c4cnn(C)c4)nc3c2)c1` [42-066], “Inactive”.
Turning to `Cn1cc(-c2cnc3ccc(NC(=O)Nc4cccc(C(F)(F)F)c4)cc3n2)cn1` [42-071], in [1], the “TNFα induced NFκB transcription activity % Inhibition” value is on record as 80.5 ± 2.5%.
Still for that read-out and setting: the result for `Cn1cc(-c2cnc3ccc(NC(=O)Nc4ccc5c(c4)OCO5)cc3n2)cn1` [42-072] reads “inactive”.
Consider `Cn1cc(-c2cnc3ccc(NC(=O)Nc4ccc5c(c4)OCCO5)cc3n2)cn1` [42-073], for which the “TNFα induced NFκB transcription activity % Inhibition” value in [1] was “inactive”.
Same read-out and setting: to `Cc1cc(NC(=O)Nc2ccc3ncc(-c4cnn(C)c4)nc3c2)ccc1F` [42-074] belongs 10.4 ± 3.9%.
Same read-out and setting: to `COc1cccc(NC(=O)Nc2ccc3ncc(-c4cnn(C)c4)nc3c2)c1` [42-076] belongs 49.7 ± 2.6%; to `Cn1cc(-c2cnc3ccc(NC(=O)Nc4ccc5sccc5c4)cc3n2)cn1` [42-077], “inactive”.
On the same count and under the same terms, to `COc1cc(NC(=O)Nc2ccc3ncc(-c4cnn(C)c4)nc3c2)ccc1F` [42-078] belongs 33.5 ± 3.7%.
In the case of `Cn1cc(-c2cnc3ccc(NC(=O)Nc4cccc(OC(F)(F)F)c4)cc3n2)cn1` [42-81B], the “TNFα induced NFκB transcription activity % Inhibition” value in data set [1] is listed as 60.9 ± 2.9%.
The same measure, in the same setting: the result for `Cn1cc(-c2cnc3ccc(NC(=O)Nc4ccc5c(c4)CCC5)cc3n2)cn1` [42-091] reads “inactive”; that for `Cn1cc(-c2cnc3ccc(NC(=O)Nc4ccc(F)c(OC(F)(F)F)c4)cc3n2)cn1` [42-096], 64.6 ± 3.3%; that for `Cn1cc(-c2cnc3ccc(NC(=O)Nc4ccc5c(c4)CCO5)cc3n2)cn1` [42-097], “inactive”.

As a reminder, the GI50 is the concentration at which growth is held to half of that of the control. By half-life is commonly meant the time in which the quantity being followed falls by half. As usually defined, the AUC(0-t) is the area under the concentration-time curve up to a stated or last time point. Usually CL/F stands for clearance divided by bioavailability, as obtained after extravascular dosing. Usually Cmax stands for the highest concentration seen after dosing. Usually Tmax stands for the time at which the peak concentration occurs. The term MRT denotes a mean duration of stay, worked out from the concentration-time curve.

Values taken from patent US12312334B2, “Quinoxaline compounds and uses thereof” (BOARD OF REGENTS OF THE UNIVERSITY OF NEBRASKA, priority 2017, dated 2025).
